Assay results: US11497796B2, “Agents directed against a cis RGMa/neogenin interaction or lipid rafts and use of the same in methods of treatment” (UNIVERSITY HEALTH NETWORK, priority 2013, dated 2022)

B1: 4Ig: four immunoglobulin-like domains of Neogenin, amino acids 1 to 383 of Accession No. AAC59662 (SEQ ID NO:1) (protein, listed as Gallus gallus)
chain: RSGPRSPLTGSVVRTFTPFYFLVEPMDILSVRGASVIMNCSSYCETPPKIEWKKDGTLLNLVSDDRRQLLPDGSLLINSVVHSKHNKPDEGYYQCVATVESLGSIVSRTAKLTVAGLPRFTSQPELSSVYKGNSAILNCEVNVDLAPFVRWEQDRQPLSLDDRVFKLPSGALLIGNATDTDGGFYRCVIESGGTPKYSEEAELKILPDPEEPQSLVFVRQPSSLTKVTGQNAVFPCVAGGFPTPYVRWTKNGEELITEDSERFALRAGGSLLISDVTEEDVGTYTCIADNENETIEAQAELAVQVPPEFLKRPANIYAHESMDIVFECEVTGKPTPTVKWVKNGDVVIPSDYFKIVKEHNLQVLGLVKSDEGFYQCIAENDVGNAQAGAQLIILDLDVAIPTLPPTSLTSATNDHLAPATTGPLPTAPRDVVATLVSTRFIRLTWRTPVSDPQGDNLTYSIFYTKEGINRERVENTSRPGETQVMIQNLMPETVYVFRVVAQNKHGHGESSAPLKVATQPEVQLPGPAPNIRAYAGSPTSVTVTWETPLSGNGEIQNYKLYYMEKGQDSEQDVDVAGLSYTITGLKKYTEYSFRVVAYNKHGPGVSTQDVVVRTLSDVPSAAPQNLTLEARNSKSIMLHWQPPPAGTHSGQITGYKIRYRKVSRKSDVTESVGGTQLFQLIEGLERGTEYNFRIAAMTVNGTGPATDWVSAETFESDLDESRVPEVPSSLHVRPLVTSIVVSWTPPENQNIVVRGYAIGYGIGSPHAQTIKVDYKQRYYTIENLDPSSHYVITLKAFNNVGEGIPLYESAVTRPHSDTSEVDLFVINAPYTPVPDPSPMMPPVGVQASILSHDTIRITWADNSLPKNQKITDARYYTVRWKTNIPANTKYKTANATTLSYLVTGLKPNTLYEFSVMVTKGRRSSTWSMTAHGTTFELVPTSPPKDVTVVSKEGKPRTIIVNWQPPSEANGKITGYIIYYSTDVNAEIHDWVIEPVVGNRLTHQIQELTLDTPYYFKIQARNSKGMGPMSEAVQFRTPKAESSDKMPNDQASGSAGKGSRPVDVGPDYKPPLSGSNSPHGSPTSPLDSNMLLVIIVSVGVITIVIVVIVAVFCTRRTTSHQKKKRAACKSVNGSHKYKGNSKDVKPPDLWIHHERLELKPIDKSPDPNPIMTDTPIPRNSQDITPVDNSMDSNIHQRRNSYRGHESEDSMSTLAGRRGMRPKMMMPFDSQPPQPVISAHPIHSLDNPHHHFHSGSLASPTRSYLHHQVSPWPVGTSMSHSDRANSTESVRNTPSSDTMPASSSQPCADHQDPDSSSGAYLGSAQEEDAAQSLPTAHVRPSHPLKSFAVPAVPAAGSAYDPTLPSTPLLTQQAPSHPVHSVKTASIGTLGRTRPPMPVVVPSAPDVQETTRMLEDSESSYEPDELTKEMAHLEGLMKDLNAITTA
modifications: Neogenin - Accession No. AAC59662

Tests used:
[1] = test system: Neogenin association with lipid rafts; assay: Lipid raft fractionation of injected chick brain/tecta; assay type: in vivo; conditions: injected into chick brain/optic tectum one day before fractionation
Description: Injected chick E8 tecta (4Ig, 2 mg/mL; N-raft, 1 mg/mL; methyl-β-cyclodextrin (10 mM)) or transfected cells (Neogenin and RGMa) were collected 24 hours later, lysed and placed at the bottom of a sucrose density gradient (0.9-0.8-0.75-0.7-0.6-0.5-0.4-0.2 M) and centrifuged at 38,000 rpm for 16 hours in SW 60 rotor (Beckman Instruments Inc.).
Proteins (4Ig, 2 mg/ml; N-Raft, 1 mg/mL; RGMaΔ, 5 mg/ml; methyl-β-cyclodextrin (10 mM)) were injected in chick E8 optic tectum and tecta were collected 24 hrs later. HEK cells were transfected with Neogenin and different RGMa constructs and collected 48 hrs later. For treatment with RGMaΔ, Neogenin transfected cells were treated with RGMaΔ (2 mg/ml) and BMP-2 (100 nM) and further incubated for 1 hr at 37° C. Tecta (3 tecta for each set of experiment) and/or cells were solubilized in chilled buffer (25 mM Tris-HCl, pH 7.4, 150 mM NaCl, 5 mM EDTA and protease inhibitor cocktail) and passed through G25 and G30 needles, respectively, and centrifuged at 800 g for 10 min at 4° C. Cold Triton X-100 was added to the post nuclear supernatant to a final concentration of 1% and incubated on ice for 1 hour. 2× volume of 2M sucrose was added and sample placed at the bottom of a sucrose density gradient (0.9-0.8-0.75-0.7-0.6-0.5-0.4-0.2 M) and centrifuged at 38,000 rpm for 16 hours in SW 60 rotor (Beckman Instruments Inc.). 400 μl fractions were collected from top (top numbered 1 and next eight fractions numbered consequently) and stored at −80° C.
As such, it was examined if overexpressing recombinant 4Ig and N-Raft competed with the endogenous 4Ig and N-Raft domains to displace Neogenin from the lipid raft fractions to the non-lipid raft fractions. Specifically, N-Raft, 4Ig-domain, or a control peptide, which was amino acid residues 50-99 of RGMa (also referred to herein as “N-RGMa^50-99”), was injected into the optic tectum at E8. The tecta were collected a day later for fractionation-analyses.

[2] = test system: retinal ganglion cells (RGCs); assay: RGC survival in vivo 14 days after axotomy; design: species or system rat; conditions: for increase of RGC survival vs. control / RGC survival: injected intra-ocularly, 14 days after axotomy; for RGC survival: control 361±19
spinal cord injured rats = assay: Spinal cord injury (clip compression), functional analysis (BBB, motor subscore, ladder-walk); assay type: in vivo, rat; conditions: for functional recovery (BBB score and motor subscore) compared to controls: 4Ig IV or MβCD IP
Description: The spinal cord was injured by clip compression at spinal cord level T8 with a 20 g force. The 4Ig or vehicle was injected intraspinally immediately following SCI. 2 injections (250 ng/μL, 3 μL each) were made 1 mm rostral and 1 mm caudal to the lesion site and adjacent to the midline vein. Immediately following SCI, the 4Ig treated rats also received a 1 mg/kg dose of 4Ig intravenously (i.v.) via the intrajugular vein and subsequent i.v. injections weekly for 2 more weeks. Rats in the MβCD group received intraperitoneal (i.p.) injection of MβCD at 1000 mg/kg/week immediately following SCI and then daily i.p. injections until sacrifice. Control rats received equivalent vehicle volumes as described above.
To assess local delivery of 4Ig, 19 adult female Wistar rats were injured and injected rostral and caudal to the lesion site with 4Ig or PBS. Immediately after the intraspinal injections, 4Ig or PBS was delivered intrathecally and then continuously for 14 days (0.5 μL/hour) via the catheter and pump system.
Functional tests were performed before the injury, 1 day, and then weekly for 6 weeks post-SCI. Locomotor function was evaluated using the BBB locomotor rating scale. A score of 0 indicates no hindlimb movement, a score of 21 indicates unimpaired locomotion as observed in Control. Motor subscores were determined to assess toe clearance, predominant paw position and absence of instability. A maximal motor subscore of 7 means normal locomotion.
Ladder-walk analysis was done to assess fine motor functions. At 1 week post-SCI and weekly thereafter, rats with a BBB score greater than 10 were placed on the horizontal ladder-walk apparatus and 3 test runs were recorded. Recordings were analyzed in slow motion; the number of footfalls per hindlimb was recorded and the average was calculated for each rat per week.
Pre-operatively, 32 adult female Wistar rats (Charles River, St. Constant, QC, 200-300 g) were acclimatized and trained for baseline behavioral assessment. Rats were divided into 4 groups (n=8/group): 1) MBCD (i.p.); 2) vehicle control (i.p); 3) 4Ig (i.v. and intraspinal); 4) vehicle control (i.v. and intraspinal). Rats were anesthetized by inhalation of 2% isofluorane in combination with a mixture of nitrous oxide and oxygen (1:2, v/v). The spinal cord was exposed by laminectomy and a clip compression injury was made at spinal cord level T8 with a 20 g force. This was a clinically relevant model of SCI reflecting human pathology. n the 4Ig and equivalent control group, 4Ig or vehicle was injected intraspinally immediately following SCI. A total of 2 injections (250 ng/μL, 3 μL each) were made 1 mm rostral and 1 mm caudal to the lesion site and adjacent to the midline vein. Injections were made stereotactically with the aid of an operating microscope using a motorized microinjector at a rate of 1.5 μl/min with a 10 μl Hamilton syringe and a customized 32 G needle. The needle was left in place for an additional 2 min after injection to prevent leakage. The overlying muscle and skin were sutured with 3-0 vicryl sutures (Johnson and Johnson, Peterborough ON, Canada).
Immediately following SCI, the 4Ig treated rats also received a 1 mg/kg dose of 4Ig i.v. via the intrajugular vein and subsequent i.v. injections weekly for 2 more weeks. Rats in the MβCD group received intraperitoneal injection of MβCD at 1000 mg/kg/week immediately following SCI and then daily i.p. injections until sacrifice. Control rats received equivalent volumes as described above. Bladders were evacuated manually 3 times daily until spontaneous voiding was established, and hematuria or urinary tract infection was treated with Clavomax (62.5 mg PO BID for 7 days). The rats were housed singly in a temperature-controlled room at 26° C. with a 12 hour light/dark cycle. Water and food were provided ad libitum. […]

photoreceptor cells = assay: Photoreceptor survival in rd1 mice (retinitis pigmentosa model); assay type: in vivo, mouse
Description: The rd1 mouse model is a model for human RP and carried a loss-of-function mutation in the gene encoding for the β-subunit of the rod photoreceptor cGMP phosphodiesterase-6.2. This loss-of-function mutation led to an accumulation of cGMP, which caused photoreceptor cell death.
In these studies, intraocular injection of the 4Ig (2 μg/μl) peptide at P9 and P15 was performed and animals were sacrificed at P21 to examine cell survival. […] Injection of 4Ig increased outer nuclear layer (ONL) thickness to about 6 cells (FIG. 19). This measurement was the average thickness of the ONL.
As described above, cholesterol depletion removes lipid rafts. Specifically, mice were treated with daily […] (IP) injections of MβCD from P9 to P21.
To examine the effect of reducing cholesterol synthesis on cell survival, AY-9944 was examined in rd1 mice (FIGS. 20 and 21). Rd1 mice were treated using two intra-peritoneal injections of AY-9944, at P9 and P15 and sacrificed at P21.

[3] = intraocular injection at P9 and P15

Molecule | Neogenin localization in membrane fractions [1] | increase of RGC survival vs. control [2] | RGC survival [2] [cells/mm^2] | increase of RGC survival ([2]; systemic application (intraperitoneal, IP)) | functional recovery (BBB score and motor subscore) compared to controls (spinal cord injured rats; as early as 2-3 weeks post-SCI) | improvement of locomotor recovery vs. control (spinal cord injured rats; older animals (greater than 7 month), post-SCI) | average depth of the ONL (photoreceptor cells; daily injections P9 to P21) | increase in the average thickness of the ONL (photoreceptor cells; daily injections P9 to P21) | photoreceptor survival (photoreceptor cells; daily injections P9 to P21) | number of rods within the Outer Nuclear Layer (anti-Rhodopsin) (photoreceptor cells; injected at P9, P21) | hindlimb coordination (footfalls), local application (spinal cord injured rats; intrathecal) | functional recovery (BBB score), local application (spinal cord injured rats; intrathecal, Alzet mini-osmotic pumps, as early as 2-3 weeks post-SCI) | hindlimb coordination, ladder-walk test (footfalls) (spinal cord injured rats; systemic treatment) | outer nuclear layer (ONL) thickness (photoreceptor cells; intraocular injection 2 μg/μl at P9 and P15, P21, control about 2 cells) | increase of ONL thickness compared to control mice (photoreceptor cells; [3]) | number of photoreceptors within the retina vs control (photoreceptor cells; [3])
N-Raft: peptide spanning amino acids 28-73 of RGMa (SEQ ID NO:2) (SPCKILKCNSEFWAATSGSHHLGAEETPEFCTALRAYAHCTRRTAR; N-Raft - amino acids 28-73 of RGMa) | relocalized from the lipid raft fractions to the heavy fractions | about 2 fold | 652±24 | – | – | – | – | – | – | – | – | – | – | – | – | –
methyl-β-cyclodextrin [MβCD, reference compound] | recovered in the non-lipid raft fraction | – | – | about 2 fold | significant functional recovery | +6.8 BBB points | about 6 cells | three-fold | photoreceptor survival was improved | dramatic increase in the number of rods | – | – | – | – | – | –
B1 | relocalized from the lipid raft fractions to the heavy fractions | about 2 fold | 682±21 | – | significant functional recovery | – | – | – | – | – | fewer footfalls | significant functional recovery | fewer footfalls | about 6 cells | more than three-fold | significantly improved the number of photoreceptors
